# Measurements as given in US9834535B2, “Sulfamate derivative compounds for use in treating or alleviating pain” (Bio-Pharm Solutions Co., Ltd., priority 2013, dated 2017).
# What was measured:
# [1] = test system: hot plate withdrawal latency; experiment: Hot-plate test; assay type: in vivo, ICR mice; settings: 200 mg/kg, mouse, oral
# Protocol: To examine the pain relief effect of the sulfamate derivative compounds, a hot-plate test was conducted in general pain animal model referring to Current Protocols in Neuroscience; Behavioral Neuroscience Unit 8.9.
# ICR mice (male, 30-35 g: Orient Bio, Korea) were habituated before test in test room for 1 hour. Animals were fasted 2 hr before administration of compounds. […] All compounds were dissolved in a vehicle of 30% (v/v) PEG 400 or 20% (v/v) Tween 80. The control group was treated the vehicle without compounds.
# […] (Hu, X. et al, 2008), and then, measured as the withdrawal latency (cut-off time: 30 sec) time until the point when each mouse was taking off a paw from the plate, shaking, licking a paw or hind leg, or jumping from the plate.
# [2] = test system: CFA-induced pain model; experiment: Antiallodynic activity on Complete Freund's Adjuvant (CFA)-induced inflammatory pain model (von Frey); assay type: in vivo, Sprague-Dawley rats; settings: ip; rat, intraperitoneal, von Frey, 0.5 h
compound,measurement,setting,value
"CC1(C)O[C@@H](COS(N)(=O)=O)[C@H](c2ccccc2Cl)O1 [Example 2, ((4S,5S)-5-(2-chlorophenyl)-2,2-dimethyl-1,3-dioxolan-4-yl)methyl sulfamate]",Hot plate test: effect (%) at the concentration administered,[1],^#200 (123.6%)
same,ED50,[2],5.9 mg/kg
